Experimental data from PubChem BioAssay (NCI).
Where “and” joins values, the source holds several entries; their conditions need not be identical. Equal values may be shown once.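 Following 48 hours of exposure in 96-well plates, responses at five concentrations were used to interpolate endpoints linearly. Here, GI50 denotes the concentration required for 50% inhibition of growth. At the TGI there is no net growth.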 Where a SMILES comes first, the peptide text is derived from it. [ ]: non-standard residue; d: D form. The star is where a group is joined. Phe(4-NO2) = N[CH](Cc1ccc([N+](=O)[O-])cc1)C(=O)O; Boc = CC(C)(C)OC(=O)*

Legend:
Assay in all cases: inhibition of tumour cell growth, NCI panel, 48 h
EKVX NSCLC = tested on: EKVX NSCLC
K-562 leukemia = tested on: K-562 leukemia
HS 578T breast = tested on: HS 578T breast
UACC-62 melanoma = tested on: UACC-62 melanoma
HCC-2998 colon = tested on: HCC-2998 colon
SF-268 CNS = tested on: SF-268 CNS
NCI-H522 lung = tested on: NCI-H522 lung
RPMI-8226 leukemia = tested on: RPMI-8226 leukemia
HL-60(TB) leukemia = tested on: HL-60(TB) leukemia

| SMILES | TGI (EKVX NSCLC) | TGI (K-562 leukemia) | TGI (HS 578T breast) | TGI (UACC-62 melanoma) | TGI (HCC-2998 colon) | TGI (SF-268 CNS) | TGI (NCI-H522 lung) | TGI (RPMI-8226 leukemia) | TGI (HL-60(TB) leukemia) | GI50 (K-562 leukemia) | GI50 (HS 578T breast) | GI50 (UACC-62 melanoma) | GI50 (HCC-2998 colon) | GI50 (RPMI-8226 leukemia) | GI50 (SF-268 CNS) | GI50 (HL-60(TB) leukemia) | GI50 (NCI-H522 lung) | GI50 (EKVX NSCLC) |
| --- | --- | --- | --- | --- | --- | --- | --- | --- | --- | --- | --- | --- | --- | --- | --- | --- | --- | --- |
| c1ccc2c(Nc3ncco3)cccc2c1 | > 10 µM | > 10 µM | > 10 µM | > 10 µM | > 10 µM | > 10 µM | > 10 µM | – | – | – | – | – | – | – | – | – | – | – |
| C/C(=C\Cc1ccc(F)cc1)CCCCCC/C(C)=C/Cc1ccc(F)cc1 | 37.2 µM | 28.5 µM | 78.1 µM | 33 µM | – | 37.2 µM | 21 µM | – | – | – | – | – | – | – | – | – | – | – |
| CC(=O)OCC1OC(SC2=NC(=O)CS2)C(OC(C)=O)C(OC(C)=O)C1OC(C)=O (configuration not stated) | – | > 100 µM | > 100 µM | > 100 µM | > 100 µM | > 100 µM | > 100 µM | 90 µM and > 100 µM | 91.2 µM and 70.7 µM | – | – | – | – | – | – | – | – | – |
| Cc1ccc(-n2nncc2[Si](C)(C)C)s1 | – | > 100 µM | > 100 µM | > 100 µM | > 100 µM | > 100 µM | > 100 µM | > 100 µM | – | – | – | – | – | – | – | – | – | – |
| COc1cc2nc(N3CCC[C@H](NC4=CC(=O)c5ccccc5C4=O)C3)nc(N)c2cc1OC | – | 1.42 µM | 4.64 µM | 4.72 µM | 3.5 µM | 3.61 µM | 3.58 µM | 4.84 µM | 4.04 µM | 0.348 µM | 1.97 µM | 2.14 µM | 1.97 µM | 1.98 µM | 1.82 µM | 1.94 µM | 1.83 µM | – |
| CN(C)C=N[C@@H](C(=O)O)c1ccccc1 | > 100 µM | > 100 µM | – | > 100 µM | > 100 µM | > 100 µM | – | > 100 µM | > 100 µM | – | – | – | – | – | – | – | – | – |
| CC(=O)CC(=O)N1CCSC1=S | > 10 µM | > 10 µM | > 10 µM | > 10 µM | > 10 µM | > 10 µM | – | > 10 µM | > 10 µM | – | – | – | – | – | – | – | – | – |
| CC(C)[C@H](C)/C=C/[C@@H](C)C1CC[C@H]2[C@@]34C=C[C@]5(C[C@@H](O)CC[C@]5(C)[C@H]3CC[C@]12C)OO4 (some centres not stated) | > 100 µM | – | – | 43.6 µM | 50.9 µM | > 100 µM | – | – | 57.1 µM | – | – | – | – | – | – | – | – | – |
| COC(=O)c1onc(C2OC(C)(C)OC2C(O)COC(c2ccccc2)(c2ccccc2)c2ccccc2)c1C(=O)OC (configuration not stated) | > 100 µM | > 100 µM | > 100 µM | > 100 µM | > 100 µM | > 100 µM | > 100 µM | > 100 µM | > 100 µM | – | – | – | – | – | – | – | – | – |
| COC(=O)c1c2c(cc3c1CC1(Cc4cc5c(c(C)c4C1)CCC5)C3)CCC2 (configuration not stated) | > 100 µM | > 100 µM | > 100 µM | – | > 100 µM | > 100 µM | > 100 µM | > 100 µM | > 100 µM | – | – | – | – | – | – | – | – | – |
| Cc1cc(S(=O)(=O)Nc2nc3cscc3c(=O)n2N)c(S)cc1Cl | > 100 µM | > 100 µM | – | > 100 µM | > 100 µM | > 100 µM | 77.9 µM | > 100 µM | > 100 µM | – | – | – | – | – | – | – | – | – |
| COc1c(C)c(C/C=C(\C)CCCC(C)CCCC(C)CCCC(C)C)c(OC)c2ccccc12 (configuration not stated) | > 100 µM | > 100 µM | > 100 µM | > 100 µM | > 100 µM | > 100 µM | > 100 µM | > 100 µM | – | – | – | – | – | – | – | – | – | – |
| CC(C)(C)OC(=O)C(C#N)C(=O)c1ccc(C(=O)O)[nH]1 (configuration not stated) | > 100 µM | > 100 µM | – | 45.7 µM | – | > 100 µM | > 100 µM | > 100 µM | 62.1 µM | – | – | – | – | – | – | – | – | – |
| c1ccc2c[n+](CCCC[n+]3ccc4ccccc4c3)ccc2c1 | > 100 µM | > 100 µM | – | > 100 µM | > 100 µM | > 100 µM | – | > 100 µM | > 100 µM | – | – | – | – | – | – | – | – | – |
| CCOC(=O)CCC(NC(=O)C(Cc1ccc([N+](=O)[O-])cc1)NC(=O)OC(C)(C)C)C(=O)NC(CCC(=O)OCC)C(=O)OCC (configuration not stated) (Boc-[Phe(4-NO2)]-Glu(OEt)-Glu(OEt)-OEt; configuration not given here) | – | – | 53.1 µM | 32.4 µM | 30.9 µM | – | – | 43.3 µM | 44 µM | – | – | – | – | – | – | – | – | – |
| CCOC(=O)CCc1cn2cc(Br)nc(OC)c2n1 | > 100 µM | > 100 µM | > 100 µM | > 100 µM | > 100 µM | > 100 µM | > 100 µM | > 100 µM | > 100 µM | – | – | – | – | – | – | – | – | – |
| O=c1c2ccccc2nc(N/N=C/c2ccc([N+](=O)[O-])cc2)n1-c1ccccc1 | 79.6 µM | > 100 µM | 68.1 µM | > 100 µM | – | 59.3 µM | > 100 µM | > 100 µM | > 100 µM | – | – | – | – | – | – | – | – | – |
| Oc1ccc(Cl)cc1-c1cc(-c2ccccc2)nc(=S)[nH]1 | > 100 µM | > 100 µM | > 100 µM | – | > 100 µM | 77.7 µM | > 100 µM | > 100 µM | > 100 µM | – | – | – | – | – | – | – | – | – |
| O=C(O)Cn1c2c(c3c1-c1ccccc1C3=O)C(=O)CCC2 | > 100 µM | > 100 µM | > 100 µM | – | > 100 µM | > 100 µM | > 100 µM | – | > 100 µM | > 100 µM | > 100 µM | – | > 100 µM | – | > 100 µM | > 100 µM | > 100 µM | > 100 µM |
| Cc1c(OCc2cccc3ccccc23)ccc2c(=O)cc(SCCN3CCOCC3)oc12 | > 100 µM | > 100 µM | > 100 µM | > 100 µM | > 100 µM | > 100 µM | > 100 µM | – | > 100 µM | – | – | – | – | – | – | – | – | – |
| O=C1CCCCC/C1=C\c1cccc(F)c1 | > 100 µM | > 100 µM | – | > 100 µM | > 100 µM | > 100 µM | – | 97.5 µM | > 100 µM | – | – | – | – | – | – | – | – | – |
| Cc1ccc(N=C/C=C(\Nc2ccc(C)cc2)c2ccc3ccccc3c2)cc1 | – | 2.72 µM | 36.8 µM | 1.3 µM | – | 28.8 µM | 11 µM | 2.56 µM | 2.02 µM | – | – | – | – | – | – | – | – | – |
| COc1ccc(OC)c2c(C)ccnc12 | > 100 µM | > 100 µM | – | 93.5 µM | > 100 µM | > 97.2 µM | 21.8 µM | > 100 µM | – | – | – | – | – | – | – | – | – | – |
| S=C1C(=Nc2ccccc2)N(c2ccccc2)/C(=N\c2cccc[n+]2Cc2ccccc2)N1c1ccccc1 | 53.8 µM | > 100 µM | > 100 µM | 25 µM | 27.2 µM | 48.4 µM | 31.2 µM | 87.2 µM | – | – | – | – | – | – | – | – | – | – |
